Results on 20 compounds are retold here after ChEMBL document CHEMBL2169824, “The many faces of the adamantyl group in drug design” (Eur J Med Chem, 2011).

SMILES strings stand for the structures. Values after ≈ are worked out from the molar mass of the structure shown.

One series deals with Enterococcus faecium. Nature of the series: Antimicrobial activity against vancomycin-resistant Enterococcus faecium. The class given is functional.
The test system of a further series is Staphylococcus aureus. Nature of the series: Antimicrobial activity against methicillin-resistant Staphylococcus aureus. The class given is functional.
Series [1] can be described thus: Half life in plasma. In kind it is ADME, cell-free.
Series [2] can be described thus: Protein binding in plasma. The class given is ADME, cell-free. To be noted: read-out: PPB (converted).
The test system of the next series is HCT-116. The series can be described thus: Antitumor activity against human HCT116 cells xenografted in athymic mouse assessed as reduction tumor size at 20 mg/kg, qd. The class given is functional. Further details: scale not given: the % may be the effect or the level left.
The next series addresses Carbonic anhydrase 2 (Homo sapiens, UniProt P00918). The series can be described thus: Inhibition of human CA2.
A further series concerns Mus musculus. The series can be described thus: Anticonvulsant activity in mouse at 30 mg/kg. In kind it is functional.
Series [3] in a line: Solubility in water. The class given is physicochemical.
In series [4] the target is T1, Mediator of RNA polymerase II transcription subunit 23 (Homo sapiens, UniProt Q9ULK4).
T1 sequence (Q9ULK4 whole entry): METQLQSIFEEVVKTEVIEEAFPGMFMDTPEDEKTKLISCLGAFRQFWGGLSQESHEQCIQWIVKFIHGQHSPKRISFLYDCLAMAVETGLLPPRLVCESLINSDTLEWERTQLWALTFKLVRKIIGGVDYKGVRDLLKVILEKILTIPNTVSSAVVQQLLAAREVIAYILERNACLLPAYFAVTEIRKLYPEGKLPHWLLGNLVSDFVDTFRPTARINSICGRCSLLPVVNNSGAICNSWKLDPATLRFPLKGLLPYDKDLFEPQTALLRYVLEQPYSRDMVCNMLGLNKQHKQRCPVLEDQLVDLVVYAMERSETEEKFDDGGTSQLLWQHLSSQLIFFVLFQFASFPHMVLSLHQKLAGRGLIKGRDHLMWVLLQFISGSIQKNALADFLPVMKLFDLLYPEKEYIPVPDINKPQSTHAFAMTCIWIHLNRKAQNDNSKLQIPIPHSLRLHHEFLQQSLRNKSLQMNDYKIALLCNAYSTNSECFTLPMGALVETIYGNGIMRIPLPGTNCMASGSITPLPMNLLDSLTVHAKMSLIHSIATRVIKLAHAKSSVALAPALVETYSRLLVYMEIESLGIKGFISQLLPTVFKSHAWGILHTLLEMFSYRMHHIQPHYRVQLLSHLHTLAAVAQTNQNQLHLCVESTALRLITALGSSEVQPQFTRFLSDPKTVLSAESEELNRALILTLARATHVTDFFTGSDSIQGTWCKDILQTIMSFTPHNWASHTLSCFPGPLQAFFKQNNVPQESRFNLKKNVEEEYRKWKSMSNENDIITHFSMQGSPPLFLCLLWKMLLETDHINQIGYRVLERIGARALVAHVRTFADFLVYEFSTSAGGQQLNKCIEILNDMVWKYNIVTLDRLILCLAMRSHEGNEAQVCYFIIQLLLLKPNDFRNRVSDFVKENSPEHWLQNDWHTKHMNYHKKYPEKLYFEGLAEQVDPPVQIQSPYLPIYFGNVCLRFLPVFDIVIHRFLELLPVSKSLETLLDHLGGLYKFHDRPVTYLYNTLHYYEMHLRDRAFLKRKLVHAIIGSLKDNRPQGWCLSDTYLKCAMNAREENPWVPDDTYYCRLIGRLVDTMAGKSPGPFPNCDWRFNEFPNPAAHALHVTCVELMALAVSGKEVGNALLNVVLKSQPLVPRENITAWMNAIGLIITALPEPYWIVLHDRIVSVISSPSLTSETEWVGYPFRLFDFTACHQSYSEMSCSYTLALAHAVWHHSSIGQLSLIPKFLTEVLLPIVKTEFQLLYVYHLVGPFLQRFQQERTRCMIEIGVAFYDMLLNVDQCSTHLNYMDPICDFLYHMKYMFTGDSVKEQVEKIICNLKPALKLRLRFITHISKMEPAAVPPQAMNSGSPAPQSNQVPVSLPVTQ
The series can be described thus: Binding affinity to Sur2.

A further series deals with T2, Vitamin D3 receptor (Homo sapiens, UniProt P11473).
T2 sequence (P11473 whole entry): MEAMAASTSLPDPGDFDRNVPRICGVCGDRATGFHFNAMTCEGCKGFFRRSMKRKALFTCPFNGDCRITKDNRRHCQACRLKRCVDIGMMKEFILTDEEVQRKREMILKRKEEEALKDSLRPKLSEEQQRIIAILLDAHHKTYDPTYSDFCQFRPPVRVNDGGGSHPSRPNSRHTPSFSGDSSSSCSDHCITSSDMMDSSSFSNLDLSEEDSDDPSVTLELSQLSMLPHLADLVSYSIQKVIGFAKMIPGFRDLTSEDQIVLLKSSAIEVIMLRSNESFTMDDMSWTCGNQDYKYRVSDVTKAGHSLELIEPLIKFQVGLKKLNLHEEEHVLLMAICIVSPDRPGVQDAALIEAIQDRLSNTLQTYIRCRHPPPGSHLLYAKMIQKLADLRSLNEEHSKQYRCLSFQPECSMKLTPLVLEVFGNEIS
The series can be described thus: Transactivation of VDR expressed in COS7 cells assessed as reduction in 1,25-dihydroxyvitamin D3-induced transcriptional activity by transient transcription assay. The class given is cell-based, COS-7.

In series [5] the test system is T3, Lysosomal acid glucosylceramidase (Homo sapiens), P04062 [N409S].
T3 sequence (whole entry): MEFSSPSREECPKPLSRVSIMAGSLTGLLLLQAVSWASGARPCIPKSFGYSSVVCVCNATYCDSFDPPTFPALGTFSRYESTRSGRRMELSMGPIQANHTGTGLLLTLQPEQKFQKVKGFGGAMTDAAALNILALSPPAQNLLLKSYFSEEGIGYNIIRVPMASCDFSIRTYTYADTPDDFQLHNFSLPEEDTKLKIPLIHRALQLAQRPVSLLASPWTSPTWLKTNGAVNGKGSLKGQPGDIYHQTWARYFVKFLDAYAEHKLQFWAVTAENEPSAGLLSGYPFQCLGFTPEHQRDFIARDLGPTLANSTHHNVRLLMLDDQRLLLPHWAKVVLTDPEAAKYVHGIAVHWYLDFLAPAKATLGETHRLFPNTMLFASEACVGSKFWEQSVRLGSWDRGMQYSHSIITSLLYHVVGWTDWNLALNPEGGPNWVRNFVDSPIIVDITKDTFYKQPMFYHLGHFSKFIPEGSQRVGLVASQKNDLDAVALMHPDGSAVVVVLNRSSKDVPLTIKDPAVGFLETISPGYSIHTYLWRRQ
The series can be described thus: Inhibition of Beta-glucocerebrosidase N370S mutant in cell based assay.

The nature of series [6]: Inhibition of Beta-glucocerebrosidase G202R mutant in cell based assay.
In series [7] the target is Delta-type opioid receptor (Homo sapiens, UniProt P41143). Nature of the series: Antagonist activity at DOR. The class given is functional.
The next series addresses Mu-type opioid receptor (Homo sapiens, UniProt P35372). Nature of the series: Antagonist activity at MOR. The class given is functional.
A short description of series [8]: Drug elimination in po dosed human assessed as unchanged compound level. In kind it is ADME, organism-based. To be noted: in vivo, read-out: Drug excretion.
Series [9] in a line: Ratio of drug level in liver to blood in human. The class given is ADME, tissue-based.
Series [10] is described as follows: Inhibition of globotriaosyl ceramide binding to Escherichia coli Verotoxin 1.
Series [11] deals with Mycobacterium tuberculosis. Nature of the series: Antimicrobial activity against Mycobacterium tuberculosis H37Rv. The class given is functional.
Series [12] in a line: Volume of distribution in mouse. In kind it is ADME, organism-based. To be noted: in vivo.
Series [13] can be described thus: Drug excretion in human urine assessed as unchanged compound level. The class given is ADME. To be noted: read-out: Drug excretion.
The nature of series [14]: Half life in human plasma. The class given is ADME, cell-free.
Series [15] is described as follows: Displacement of [125I]neurotensin from neurotensin receptor 1 in guinea pig brain. Further details: species or system Cavia porcellus.

Sequence of Mu-type opioid receptor (P35372 whole entry): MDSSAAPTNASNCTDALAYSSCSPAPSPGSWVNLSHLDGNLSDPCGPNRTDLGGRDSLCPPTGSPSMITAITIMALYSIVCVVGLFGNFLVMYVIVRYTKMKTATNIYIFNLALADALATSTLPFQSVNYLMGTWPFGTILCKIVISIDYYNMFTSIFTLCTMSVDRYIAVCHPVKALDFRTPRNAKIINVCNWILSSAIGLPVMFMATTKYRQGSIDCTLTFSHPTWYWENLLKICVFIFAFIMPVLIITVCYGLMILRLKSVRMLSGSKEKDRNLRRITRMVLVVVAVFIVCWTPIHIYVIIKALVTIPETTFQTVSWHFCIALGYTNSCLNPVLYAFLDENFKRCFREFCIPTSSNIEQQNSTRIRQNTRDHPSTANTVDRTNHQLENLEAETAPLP
Sequence of Delta-type opioid receptor (P41143 whole entry): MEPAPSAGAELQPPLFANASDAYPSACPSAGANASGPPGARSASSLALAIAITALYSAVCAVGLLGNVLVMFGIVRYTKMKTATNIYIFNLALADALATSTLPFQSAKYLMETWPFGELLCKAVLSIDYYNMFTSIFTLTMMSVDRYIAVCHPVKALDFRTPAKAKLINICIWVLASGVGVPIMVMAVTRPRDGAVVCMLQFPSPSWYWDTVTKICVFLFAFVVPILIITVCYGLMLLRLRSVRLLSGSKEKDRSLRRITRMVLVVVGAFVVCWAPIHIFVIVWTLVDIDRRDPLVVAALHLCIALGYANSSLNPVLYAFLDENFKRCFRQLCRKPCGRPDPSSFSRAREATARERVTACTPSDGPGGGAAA

The MIC is the smallest concentration in the dilution series that meets the test's criterion for growth inhibition. Turning to `CC12C[C@@]34C=CC(=O)[C@@](C)(CCC(=O)Nc5c(O)ccc(C(=O)O)c5O)C3[C@H](CC1C4)O2` (stereo partly drawn) [PLATENSIMYCIN], the MIC with Enterococcus faecium and in the series with Staphylococcus aureus was 0.2 µg/mL (≈ 0.453 µM) in each case.

As for `C[C@@]1(CCC(=O)Nc2c(O)ccc(C(=O)O)c2O)C(=O)C=CC23CC4CC(CC(C4)C21)C3` (stereo partly drawn), the MIC in the series on Enterococcus faecium and against Staphylococcus aureus was 1.3 µg/mL (≈ 2.96 µM) throughout.

A word on the half-life: it is how long it takes for the measured level to halve. The compound `CC(C)NCC(O)COc1ccc(CC(=O)OCCC23CC4CC(CC(C4)C2)C3)cc1` (stereo not drawn) [ADAPROLOL] gave a half-life in series [1] of 6.9 min.

For `N#C[C@@H]1C[C@@H]2C[C@@H]2N1C(=O)[C@@H](N)C12CC3CC(CC(O)(C3)C1)C2` [SAXAGLIPTIN ANHYDROUS], the fraction unbound in series [2] is 0.7.

In the case of `COC(=O)c1ccc(O)c(NC(=O)COc2ccc(C34CC5CC(CC(C5)C3)C4)cc2)c1`, the Activity in the series with HCT-116 came out at 53%.

In general, Ki refers to the equilibrium dissociation constant of an inhibitor or competing ligand from its target. In the case of `NS(=O)(=O)c1nnc(NC(=O)OC23CC4CC(CC(C4)C2)C3)s1`, the Ki at Carbonic anhydrase 2 was determined as 10 nM. Further, the Activity in the series with Mus musculus came to 92%.

The term solubility denotes how much of the substance goes into solution per volume. Compound `O=C(O)CCCCCCCCCCCNC(=O)NC12CC3CC(CC(C3)C1)C2` had a solubility in [3] of 19 µg/mL (≈ 48.4 µM).

Broadly, the Kd is the equilibrium constant for the complex coming apart. Regarding `Cc1ccc(S(=O)(=O)n2ccc3c(OCC(O)CN(CCCCCN)C(=O)N4CCC(C5CCN(C(=O)C67CC8CC(CC(C8)C6)C7)CC5)CC4)cccc32)cc1` (stereo not drawn) [WRENCHNOLOL], in series [4], binding was characterised by a dissociation constant (Kd) of 1800 nM.

In general, IC50 refers to the midpoint of a concentration-inhibition curve. With `C=C1[C@H](O)CC(=C/C=C2\CCC[C@]3(C)[C@@H]([C@H](C)/C=C/C[C@H](O)CC45CC6CC(CC(C6)C4)C5)CC[C@@H]23)C[C@H]1O`, at Vitamin D3 receptor, the IC50 came to 3 nM.

`O=C(CCCCCN1C[C@H](O)[C@@H](O)[C@H](O)[C@H]1CO)NC12CC3CC(CC(C3)C1)C2`: the INH in series [5] and in series [6] was more than 1 µM throughout.

`Cc1cc(O)cc(C)c1C[C@H](N)C(=O)N1Cc2ccccc2C[C@H]1C(=O)NC12C[C@H]3C[C@@H](C1)C[C@@H](C2)C3`: the Ki is 1.24 nM in [7] and 85.5 nM at Mu-type opioid receptor.

Usually Kp stands for the ratio of the level in a tissue or fluid to that in plasma or blood. As for `CN(C)CCOCC(=O)NC12CC3CC(CC(C3)C1)C2` [TROMANTADINE], the dose excreted in [8] stood at 30%. Besides, in series [9], the Kp came to 19.

For the compound `CCCCCCCCCCCCC/C=C/C(O)C(CO[C@@H]1O[C@H](CO)[C@@H](O[C@@H]2O[C@H](CO)[C@H](O[C@H]3O[C@H](CO)[C@H](O)[C@H](O)[C@H]3O)[C@H](O)[C@H]2O)[C@H](O)[C@H]1O)NC(=O)CC12CC3CC(CC(C3)C1)C2` (stereo partly drawn), the IC50 in [10] came out at 10000 nM.

Compound `NS(=O)(=O)c1nnc(NC(=O)NC23CC4CC(CC(C4)C2)C3)s1` came in with a Ki at Carbonic anhydrase 2 of 13 nM. The compound further returned an Activity with Mus musculus of 47%.

The Vd is a proportionality between amount in the body and measured concentration, not a real space. In series [11], `CC(C)=CCC/C(C)=C/CNCCNC1C2CC3CC(C2)CC1C3` (stereo not drawn) [SQ109] had an MIC of 1.56 µM (≈ 0.516 µg/mL). This compound also registered a Vd in [12] of 11.8 L/kg.

For the compound `CC(=O)N(O)CCCCCNC(=O)CCC(=O)N(O)CCCCCNC(=O)CCC(=O)N(O)CCCCCN` [DEFEROXAMINE], the half-life in series [1] came to 5 min.

For `NC12CC3CC(CC(C3)C1)C2` [AMANTADINE], the dose excreted in [13] was determined as 65%.

`CC(N)C12CC3CC(CC(C3)C1)C2` (stereo not drawn) [RIMANTADINE] gave a half-life in series [14] of 1440 min.

In the series with Mus musculus, `NS(=O)(=O)c1nnc(NC(=O)CC23CC4CC(CC(C4)C2)C3)s1` had an Activity of 75%.

Compound `COc1cccc(OC)c1-c1cc(C(=O)NC2(C(=O)O)C3CC4CC(C3)CC2C4)nn1-c1ccnc2cc(Cl)ccc12` (stereo not drawn) [REMINERTANT] returned an IC50 in [15] of 0.99 nM.
